Experimental data reported in US20220409617A1, “Drug Formulations and Methods of Treatment for Metabolic Disorders” (The Regents of the University of California, priority 2019, published 2022).

Test system: A549 lung cancer cells
Assay: KRAS-mediated mitochondrial fission in A549 cells
Assay type: cell-based, human
Conditions: A549, oncogenic KRAS; 893 5 μM 1 h, leflunomide 50 μM 24 h
Procedure: 3T3-L1 cells were maintained in DMEM with 10% FBS and 1% penicillin-streptomycin until induced to differentiate. 3T3-L1 pre-adipocytes were differentiated as described in (M. P. Valley, et al., Anal. Biochem. 505: 43-50, 2016, the disclosure of which is incorporated herein by reference) with slight modifications. Briefly, pre-adipocytes were grown to confluence. After 2 d, cells were induced with maintenance media containing 500 μM IBMX (15879, Sigma-Aldrich, St. Louis, Mo.), 1 μM dexamethasone (D4902, Sigma-Aldrich), 5 μg/mL bovine insulin (10516, Sigma-Aldrich), and 5 μM troglitazone (50-115-0786, ApexBio). Media was changed every 2-3 d for 7 d. On day 7 post-induction, media was changed to maintenance media+5 μg/mL bovine insulin. On day 9 post-induction, media was changed to maintenance media. Mature adipocytes were used 12-14 d post-induction for all experiments. LSL-KrasG12D mouse embryonic fibroblasts (MEFs) with and without Cre-mediated deletion of the STOP cassette were obtained from David Tuveson (Cold Spring Harbor Laboratory, Cold Spring Harbor N.Y., USA) in 2000. p53^flox/flox MEFs were derived in house (2015) from C57BL/6 mice using standard techniques and immortalized by transient expression of Cre recombinase and deletion of p53. MEFs were cultured and maintained in DMEM with 10% FBS and 1% penicillin-streptomycin. A549 cells were cultured in DMEM with 10% FBS, 1% penicillin-streptomycin and 1% sodium pyruvate. Stock solution of palmitic acid (ACROS Organics, cat # AC129702500) was prepared at 100 mM in ethanol. Palmitate (250 μM) was conjugated to 1% (w/v) fatty-acid free bovine serum albumin (Sigma, A8806) in DMEM at 37° C. for 20 min. For all immunofluorescence assays, 8,000 MEFs were seeded into 8-chamber slides (Cellvis, cat # C8-1.5H-N) 12-16 h before treatment. Cells were pre-treated with sphingolipid-like compound 893 (5 μM in water), myriocin (10 μM in methanol), fumonisin-B1 (30 μM in DMSO), or celastrol (500 nM in DMSO) for 3 h followed by a 3 h treatment with BSA-conjugated palmitate mixture or BSA alone. […]
MEFs were washed twice with PBS and fixed with 4% paraformaldehyde for 10 min at RT. […] NADH/NADPH autofluorescence was detected with 740 nm excitation and 450±50 nm detectors using a Mai Tai two-photon laser. Fluorescence microscopy was performed on a Zeiss LSM 780 confocal using a 63× oil objective with a […] numerical aperture (NA) or using a Nikon TE2000-S inverted epifluorescence microscope with a 100× oil objective (1.3 NA) and a Photometrics CoolSNAP ES2 monochrome CCD camera. […]

## CCCCCCCCc1ccc([C@H]2CCN[C@@H]2CO)cc1.Cl [compound 893]
  Reversal of mitochondrial fragmentation / tubularity in A549 cells: rapidly corrected KRAS-mediated mitochondrial fission
